Measured values reported in US20030077740A1, “Presenilin/Crk binding polypeptides (PCBP) and methods of use thereof” (priority 2001, published 2003).

Experiments:
[1] = system: large hydrophilic loop of PS2; assay: co-immunoprecipitation in 293T cells, PS2 loop; format: binding; settings: immunoprecipitation with anti-TAG, 48 hrs after transfection
Experimental: To confirm the yeast two-hybrid data, the interaction between PBP and PSs was assayed in mammalian cells by immunoprecipitation. Human kidney 293-T cells, and monkey kidney COS-7 cells were cultured in Dulbecco's modified Eagle's medium supplemented with 10% fetal calf serum at 37° C. in a 10% CO2 atmosphere. A nine-amino acid TAG epitope ([…]) (SEQ ID NO:6) was incorporated in-frame at the 3′ end of the PBP cDNA (PBP-TAG), and an eight amino acid FLAG epitope ([…]) (SEQ ID NO:7) was attached in frame at the 5′ end of the large hydrophilic loop of PS1 cDNA and at the 3′ end of full length PS1 cDNA as described previously (Kimura, H., Proc. Natl. Acad. Sci. (USA), 90:2165-2169 (1993)). The resulting fragments were inserted into the pCIS2 expression vector (Genentech, San Francisco, Calif.) for transient or constitutive expression. […]
For immunoprecipitation of the large hydrophilic loop of PSs or Crk with PBP, cells were lysed in RIPA buffer (100 mM NaCl, 0.5% NP-40, 0.5% DOC, 0.1% SDS, 50 mM Tris, pH 7.5, 1 mM PMSF and 1 μg/ml aprotinin, 1 μg/l leupeptin) on ice for 30 min. […] The bound antibodies were detected by the ECL-plus chemiluminescence system (Amersham, Arlington Heights, Ill.).

[2] = system: HEK293 cells; assay: secretion of endogenous APP751 by HEK293 cells; format: cell-based; settings: HEK293 cells expressing PBP
Experimental: Western blotting, metabolic labeling and immunoprecipitation: For western blotting, cells were washed twice with ice-cold PBS and lysed in lysis buffer (1% Triton, 50 mM Hepes pH 7.5, 50 mM NaCl, 5 mM EDTA, 1 mM Na3VO4, 50 mM NaF, 10 mM Na4P2O7, plus a mixture of protease inhibitors (Complete Mini; Roche, Ind., USA). Protein concentrations were determined by Coomassie Plus (Pierce; IL, USA). The same amount of protein from each sample was separated on Novex pre-cast polyacrylamide gels (Invitrogen; CA, USA), and transferred to Immobulin membranes (Millipore; MA, USA). The membranes were blocked with 5% non-fat milk in Tris-buffered saline for 1 hour at room temperature. Following overnight incubation at 4° C. with primary antibodies, the antigens are detected with horseradish peroxidase-conjugated secondary antibodies (Bio-Rad; CA, USA; 1:20,000), an ECL kit (Amersham; NJ, USA), and exposed to films. For pulse-chase experiments, cells were grown to 80% confluency and incubated in methionine-free DMEM for 90 min. […] Protein concentrations were determined and the same amounts of proteins were immunoprecipitated with antibodies at 4° C. overnight 25 μl of anti-mouse IgG agarose (Roche) was then added to each sample and incubated at 4° C. for 2 hours on a rocker platform. […] The gels were dried and subjected to autoradiography and quantitated by NIH image. […]

[3] = system: B103 (APP695) cells; assay: intracellular APP level and pulse-chase turnover in B103 cells; format: cell-based, rat
[4] = system: B103 (APP695) cells; assay: APP secretion by transfected B103 (APP695) cells, Western blotting; format: cell-based, rat

With “PBP: novel 2027 amino acid protein, 233 kD, binds presenilins and Crk; expressed from cDNA in cells (KYGVVICSFRGSVPQGLVLEIGETVQILEKCEGWYRGVSTKKPNVKGLFPANYIHLK; listed as Mus musculus)” the “interaction with large hydrophilic loop of PS2” value [1] was “interacts”, the “secretion of endogenous APP751” value [2] was “reduced” and the “intracellular APP protein level, pulse-chase” value ([3]; 10 min 35S-methionine label, chase 15-60 min) was “rapidly decreased”. For the same substance, the “full length APP, intracellular level” value ([3]; APP695/PBP relative to APP695 cells, antibodies 6E10 and 22C11) was “reduced”, the “abundance of APP mRNAs” value ([4]; RT-PCR) was “not altered” and the “secretion of sAPPβ” value ([4]; antibodies 22C11, GID and 6E10, vs cells without PBP) was “Less secretion”. The sAPPα secretion ([4]; co-expression with WT PS1 or FAD PS1 (L392V), relative to PBP alone) was “further reduced”, the “secretion of β-laminin” value ([4]; specificity control) was “no effect” and the “secretion of sAPPα” value ([4]; stable clones vs empty vector, antibody 6E10) was “dramatically decreased”. For the same substance, the APP secretion ([4]; transient transfection, uncloned population) was “reduction”.
